Laboratory results taken from ChEMBL document CHEMBL4739717, “Methods of treating cartilage disorders through inhibition of clk and dyrk” (2020).

How the values were obtained:
[1] = Effect on Wnt signaling pathway in human SW480 cells harbouring TCF/LEF luciferase reporter gene and SP5-Luc reporter gene incubated for 36 to 48 hrs by luminescence assay; format: cell-based
[2] = Induction of chondrogenesis in human MSC assessed as maximum activity at 100 nM incubated for 6 days by rhodamine B and Nile red staining based imaging analysis relative to control; format: functional; details: BMMSC, 144 h, time 6 day
[3] = Induction of chondrogenesis in human MSC assessed as incubated for 6 days by rhodamine B and Nile red staining based imaging analysis; format: functional; details: bmmsc
[4] = Inhibition of IL1-beta induced MMP3 expression levels in human chondrocytes assessed as MMP3 levels incubated for 2hrs followed by IL1-beta stimulation and measured after overnight incubation by LANCE assay; format: functional, cell-based; details: Chondrocyte
[5] = molecular target: Dual specificity tyrosine-phosphorylation-regulated kinase 1A (Homo sapiens, UniProt Q13627); assay: Inhibition of recombinant DYRK1A (unknown origin) using Ser/Thr 18 peptide as substrate incubated for 1 hr in presence of ATP by FRET assay

| Structure (SMILES) | EC50 [1] [nM] | Emax at 0.1 µM [2] [%] | EC50 [3] [nM] | EC50 [4] [nM] | EC50 [5] [nM] |
| --- | --- | --- | --- | --- | --- |
| O=C1CCc2cccc(c2)-c2cncc3[nH]c(nc23)-c2n[nH]c3ccc(cc23)-c2cncc(c2)N1 | 51.8 | 225 | 50 | 3000 | – |
| CC(C)OCCCNC(=O)c1n[nH]c2ccc(-c3cccnc3)cc12 | 464 | 92.5 | – | 10.8 | – |
| CCNCc1cncc(-c2cnc3[nH]nc(-c4cc5c(-c6cc(F)cc(CNS(C)(=O)=O)c6)cncc5[nH]4)c3c2)c1 | > 10000 | 42.8 | – | 3000 | 6 |
| Cn1cc(-c2cc3c(-c4nc5c(-c6cccc(F)c6)cncc5[nH]4)n[nH]c3cn2)cn1 | 70 | 71 | 100 | – | 15 |
| Nc1cncc(-c2ccc3[nH]nc(-c4cc5c(-c6ccncc6)nccc5[nH]4)c3c2)c1 | 658 | 76.8 | 100 | – | 11 |
| O=C(Nc1cncc(-c2cc3c(-c4cc5c(-c6cccnc6)cccc5[nH]4)n[nH]c3cn2)c1)C1CC1 | 330 | 308 | 100 | – | 34 |
| FC1(F)CCN(Cc2cncc(-c3ccc4[nH]nc(-c5cc6c(N7CCCCC7)cccc6[nH]5)c4c3)c2)C1 | 750 | 160 | 30 | – | 22 |
| Cc1ncc(-c2ccc3[nH]nc(-c4nc5c(-c6cccc(F)c6)cccc5[nH]4)c3n2)n1C | 150 | 112 | 10 | – | 80 |
| Nc1cncc(-c2ccc3[nH]nc(-c4nc5c(-c6ccccc6F)nccc5[nH]4)c3c2)c1 | 8.8 | 61.9 | 100 | – | 6 |
| CN(C)Cc1cncc(-c2cnc3[nH]nc(-c4nc5c(-c6cc(F)cc(N7CCOCC7)c6)cncc5[nH]4)c3c2)c1 | 21 | 114 | 30 | – | 11 |
| c1cncc(-c2ccc3[nH]nc(-c4nc5c(-c6ccoc6)cncc5[nH]4)c3c2)c1 | 45.4 | 149 | 100 | – | 3 |
| CN1CCN(c2cncc3[nH]c(-c4n[nH]c5ccc(-c6cncc(NC(=O)CC7CCNCC7)c6)cc45)cc23)CC1 | > 10000 | 289 | 100 | – | 15 |
| CCCCC(=O)Nc1cncc(-c2cnc3[nH]nc(-c4cc5c(-c6ccncc6)cncc5[nH]4)c3c2)c1 | > 10000 | 70.4 | 10 | – | 17 |
| c1cncc(-c2cc3c(-c4cc5c(-c6cccnc6)cncc5[nH]4)n[nH]c3cn2)c1 | 1340 | 76.4 | 100 | – | 17 |
| Cn1cc(-c2ccc3[nH]nc(-c4cc5c(-c6cccnc6)cncc5[nH]4)c3c2)cn1 | 250 | 65.2 | 30 | – | 53 |
| CN(C)c1cncc(-c2ccc3[nH]nc(-c4nc5c(-c6cccc(F)c6)cncc5[nH]4)c3n2)c1 | 638 | 154 | 10 | – | 25 |
| c1cc2[nH]c(-c3n[nH]c4ccc(-c5cncc(CN6CCCCC6)c5)cc34)cc2cn1 | 685 | 122 | 100 | – | 4 |
| CCNCc1cncc(-c2ccc3[nH]nc(-c4cc5c(-c6cc(F)cc(CNS(C)(=O)=O)c6)cncc5[nH]4)c3c2)c1 | > 10000 | 58 | 100 | – | 21 |
| CN1CCN(c2nccc3[nH]c(-c4n[nH]c5cnc(-c6cncc(NC(=O)C7CCCCC7)c6)cc45)cc23)CC1 | 3420 | 60.8 | 10 | – | 3 |
| CCC(=O)Nc1cncc(-c2cnc3[nH]nc(-c4nc5c(-c6ccsc6)cccc5[nH]4)c3c2)c1 | 10 | 167 | 100 | – | 76 |
| CCC(=O)Nc1cncc(-c2ccc3[nH]nc(-c4cc5c(-c6cccc(F)c6)ccnc5[nH]4)c3c2)c1 | 13.2 | 167 | 100 | – | 33 |
| CCC(=O)Nc1cncc(-c2cnc3[nH]nc(-c4cc5c(-c6cccc(F)c6)cncc5[nH]4)c3c2)c1 | 246 | 113 | 10 | – | 13 |
| CC(C)Nc1cncc(-c2ccc3[nH]nc(-c4nc5c(-c6ccoc6)ccnc5[nH]4)c3n2)c1 | 298 | 64.2 | 100 | – | 26 |
| O=C(Nc1cncc(-c2cnc3[nH]nc(-c4nc5c(-c6ccoc6)cncc5[nH]4)c3c2)c1)c1ccccc1 | 51 | 110 | 100 | – | 30 |

| Structure (SMILES) | EC50 [1] [nM] | Emax at 0.1 µM [2] [%] | EC50 [3] [nM] | EC50 [4] [nM] | EC50 [5] [nM] |
| --- | --- | --- | --- | --- | --- |
| Fc1ccccc1-c1cncc2[nH]c(-c3n[nH]c4ncc(-c5cn[nH]c5)cc34)cc12 | 375 | 51.1 | 100 | – | 20 |
| Cc1cn(-c2ccnc3[nH]c(-c4n[nH]c5ccc(-c6cncc(NC(=O)C7CCC7)c6)nc45)nc23)cn1 | > 10000 | 69.1 | 300 | – | 20 |
| Cc1ccc(-c2cncc3[nH]c(-c4n[nH]c5ccc(-c6cncc(N)c6)nc45)nc23)s1 | 40.7 | 79.4 | 30 | – | 2 |
| CC(C)Nc1cncc(-c2cnc3[nH]nc(-c4nc5c(-c6cccc(F)c6)cncc5[nH]4)c3c2)c1 | 1.2 | 504 | 30 | – | 20 |
| Cc1ccncc1-c1cc2c(-c3nc4c(-c5cc(F)cc(CNS(C)(=O)=O)c5)cccc4[nH]3)n[nH]c2cn1 | 30.4 | 81.8 | 30 | – | 58 |
| Cn1cc(-c2cc3c(-c4nc5c(-c6cccc(F)c6)nccc5[nH]4)n[nH]c3cn2)cn1 | 10 | 110 | 100 | – | 26 |
| CN(C)CCNc1cc(F)cc(-c2cccc3[nH]c(-c4n[nH]c5cnc(-c6cncc(N)c6)cc45)cc23)c1 | 407 | 180 | 100 | – | 23 |
| CN1CCN(c2cccc3[nH]c(-c4n[nH]c5ncc(-c6cncc(CN7CCCCC7)c6)cc45)cc23)CC1 | 4750 | 23.6 | 300 | – | 34 |
| Cc1ncc(-c2cnc3[nH]nc(-c4nc5c(-c6cccc(F)c6)nccc5[nH]4)c3c2)n1C | 12.5 | 152 | 100 | – | 5 |
| Cc1ccncc1-c1cc2c(-c3cc4cnccc4[nH]3)n[nH]c2cn1 | 389 | 61.4 | 10 | – | 11 |
| CCCCC(=O)Nc1cncc(-c2ccc3[nH]nc(-c4cc5c(N6CCCCC6)cccc5[nH]4)c3n2)c1 | 572 | 68.6 | 100 | – | 40 |
| O=C(Nc1cncc(-c2ccc3[nH]nc(-c4nc5c(-c6ccc(Cl)s6)ccnc5[nH]4)c3n2)c1)C1CCC1 | 354 | 102 | 10 | – | 28 |
| Cc1ccc(-c2cncc3[nH]c(-c4n[nH]c5cnc(-c6cncc(NC(=O)C7CCC7)c6)cc45)nc23)s1 | 10.1 | 231 | 100 | – | 12 |
| CN1CCN(c2ccnc3[nH]c(-c4n[nH]c5ccc(-c6cncc(N)c6)cc45)cc23)CC1 | 1170 | 50.2 | 100 | – | 7 |
| Cc1ccc(-c2cncc3[nH]c(-c4n[nH]c5cnc(-c6cncc(N)c6)cc45)nc23)s1 | 10.9 | 162 | 100 | – | 44 |
| CCCCC(=O)Nc1cncc(-c2ccc3[nH]nc(-c4cc5c(-c6ccoc6)cncc5[nH]4)c3c2)c1 | 915 | 122 | 30 | – | 13 |
| CC(C)CC(=O)Nc1cncc(-c2ccc3[nH]nc(-c4nc5c(-c6cc(F)cc(CNS(C)(=O)=O)c6)cncc5[nH]4)c3c2)c1 | 5 | 118 | 100 | – | 16 |
| CC(C)CC(=O)Nc1cncc(-c2ccc3[nH]nc(-c4nc5c(-c6ccc(F)cc6)cncc5[nH]4)c3c2)c1 | 57 | 125 | 100 | – | 60 |
| Cc1cn(-c2nccc3[nH]c(-c4n[nH]c5ccc(-c6cncc(NC(=O)CC(C)C)c6)nc45)nc23)cn1 | 2900 | 69.3 | 30 | – | 28 |
| c1cncc(-c2cc3c(-c4nc5ccccc5[nH]4)n[nH]c3cn2)c1 | 20.1 | 80.5 | 30 | – | 72 |
| FC1(F)CCN(Cc2cncc(-c3cnc4[nH]nc(-c5cc6c(-c7ccoc7)cccc6[nH]5)c4c3)c2)C1 | 1000 | 72.1 | 30 | – | 11 |
| CCCC(=O)Nc1cncc(-c2cnc3[nH]nc(-c4nc5c(-c6ccoc6)cccc5[nH]4)c3c2)c1 | 63 | 111 | 100 | – | 25 |
| CC(C)(C)CC(=O)Nc1cncc(-c2cc3c(-c4cc5cnccc5[nH]4)n[nH]c3cn2)c1 | 1890 | 58.8 | 10 | – | 3 |
| Nc1cncc(-c2ccc3[nH]nc(-c4nc5c(-c6ccccc6F)ccnc5[nH]4)c3n2)c1 | > 10000 | 127 | 10 | – | 15 |
